US4061777A, “Vasodilatory terpeno-phenoxyalkylamines” (Mar-Pha, Societe d'Etudeet d'Exploitation de Marques Mar-Pha, priority 1974, dated 1977)
Values after ≈ are worked out from the molar mass of the structure shown. Each block holds one compound with its values, some of them ahead of it.

What was measured:
Staphylococcus aureus = assay: Bacteriostatic activity by the method of streaks in gelose media (minimum inhibitory concentration), Staphylococcus aureus; type: cell-based; settings: Staphylococcus aureus (gram +ve)
Procedure: (§1) The bacteriostatic activity of the products according to the invention have been evaluated by the method of streaks in gelose media. This method comprises making increasing dilutions of the product to be tested, in nutritive gels poured in a Petri dish. The bacteria to be studied are introduced onto the geloses in parallel streaks by means of a platinum loop which has been immersed in a 24 hour old culture of the bacteria. […] The activity of the compounds has been studied vis a vis gram + ve (Staphylococcus aureus) and gram - ve (Escherichia coli) bacteria.

Escherichia coli = assay: Bacteriostatic activity by the method of streaks in gelose media (minimum inhibitory concentration), Escherichia coli; type: cell-based; settings: Escherichia coli (gram -ve)
Procedure: as §1

[1] = system: heart taken from a rabbit; assay: Coronaro-dilatory effects in vitro on isolated rabbit heart (Langendorff's technique); settings: for Coronary output, Duration in mins.: duration of the variation in coronary output
Procedure: They were measured in vitro on a heart taken from a rabbit, according to Langendorff's technique. The terpenophenoxy alkylamines according to the invention are administered to the aortic canal at a constant volume of 1 cm^3 for 1 minute.
The following table indicates the increase in the coronary output and the duration of this variation, depending on the doses.

[2] = Oryctolagus cuniculus, 1 min, dose 1 μg/cm^3, aortic canal, 1 cm^3 for 1 minute, increase (+), read-out: Coronary output, Variations in %
[3] = Oryctolagus cuniculus, 1 min, dose 3 μg/cm^3, aortic canal, 1 cm^3 for 1 minute, increase (+), read-out: Coronary output, Variations in %
[4] = Oryctolagus cuniculus, 1 min, dose 10 μg/cm^3, aortic canal, 1 cm^3 for 1 minute, increase (+), read-out: Coronary output, Variations in %

Compound: Cc1cc(OCC(O)CNC(C)C)c(C2CC3CCC2(C)C3(C)C)cc1C (centres unmarked) [Example 11, 1-isopropylamino 3-(2'-isobornyl-4',5'-dimethylphenoxy) propan-2-ol]
- activation at 3 µg/mL [1, 3]: 72%
- activation at 10 µg/mL [1, 4]: 210%
- Coronary output, Duration in mins. ([1]; dose 3 μg/cm^3): 5 min
- Coronary output, Duration in mins. ([1]; dose 10 μg/cm^3): 12 min

Compound: Cc1cc(OCCNCCO)c(C2CC3CCC2(C)C3(C)C)cc1C (centres unmarked) [Example 7, N-hydroxyethyl-2-(2'-isobornyl-4',5'-dimethylphenoxy) ethylamine]
- MIC (Staphylococcus aureus): 10 µg/mL (≈ 28.9 µM)
- MIC (Escherichia coli): 30 µg/mL (≈ 86.8 µM)
- activation at 3 µg/mL [1, 3]: 51%
- activation at 10 µg/mL [1, 4]: 109%
- Coronary output, Duration in mins. ([1]; dose 3 μg/cm^3): > 15 min
- Coronary output, Duration in mins. ([1]; dose 10 μg/cm^3): > 15 min

Compound: Cc1cc(OCC(O)CN)c(C2CC3CC2C(C)C3(C)C)cc1C (centres unmarked) [Example 5, 3-(2'-isocamphyl-4',5'-dimethylphenoxy)-1-amino propan-2-ol]
- MIC (Staphylococcus aureus): 5 µg/mL (≈ 15.1 µM)
- MIC (Escherichia coli): 5 µg/mL (≈ 15.1 µM)
- activation at 1 µg/mL [1, 2]: 13%
- activation at 3 µg/mL [1, 3]: 70%
- Coronary output, Duration in mins. ([1]; dose 1 μg/cm^3): 2 min
- Coronary output, Duration in mins. ([1]; dose 3 μg/cm^3): > 15 min

Compound: CC(C)NCC(O)COc1ccccc1C1CC2CCC1(C)C2(C)C (centres unmarked) [Example 9, 1-Isopropylamino 3-(2'-isobornylphenoxy) propan-2-ol]
- activation at 3 µg/mL [1, 3]: 95%
- activation at 10 µg/mL [1, 4]: 102%
- Coronary output, Duration in mins. ([1]; dose 3 μg/cm^3): 4 min
- Coronary output, Duration in mins. ([1]; dose 10 μg/cm^3): 4 min

Compound: Cc1cc(OCC(O)CN)c(C2CC3CCC2(C)C3(C)C)cc1C (centres unmarked) [Example 4, 3-(2'-isobornyl-4,5'-dimethylphenoxy)-1-amino propan-2-ol]
- MIC (Staphylococcus aureus): 5 µg/mL (≈ 15.1 µM)
- MIC (Escherichia coli): 5 µg/mL (≈ 15.1 µM)
- activation at 3 µg/mL [1, 3]: 127%
- activation at 10 µg/mL [1, 4]: 140%
- Coronary output, Duration in mins. ([1]; dose 3 μg/cm^3): 15 min
- Coronary output, Duration in mins. ([1]; dose 10 μg/cm^3): 12 min

Compound: Cc1cc(OCC(O)CNC(C)C)c(C2CC3CC2C(C)C3(C)C)cc1C (centres unmarked) [Example 6, 3-(2'-isocamphyl-4',5'-dimethylphenoxy)-1-isopropylamino propan-2-ol]
- MIC (Staphylococcus aureus): 5 µg/mL (≈ 13.4 µM)
- activation at 3 µg/mL [1, 3]: 36%
- activation at 10 µg/mL [1, 4]: 66%
- Coronary output, Duration in mins. ([1]; dose 3 μg/cm^3): 15 min
- Coronary output, Duration in mins. ([1]; dose 10 μg/cm^3): 9 min

Compound: Cc1ccc(OCC(O)CN)c(C2CC3CC2C(C)C3(C)C)c1 (centres unmarked) [Example 12, 1-amino 3-(2'-isocamphyl-4'-methylphenoxy) propan-2-ol]
- MIC (Staphylococcus aureus): 7.5 µg/mL (≈ 23.6 µM)
- MIC (Escherichia coli): 5 µg/mL (≈ 15.7 µM)
- activation at 100 µg/mL ([1]; Oryctolagus cuniculus, 1 min, dose 100 μg/cm^3, aortic canal, 1 cm^3 for 1 minute, increase (+), read-out: Coronary output, Variations in %): 31%
- Coronary output, Duration in mins. ([1]; dose 100 μg/cm^3): 4 min

Second part, led by results:

- MIC (Staphylococcus aureus): 5 µg/mL (≈ 13.6 µM)
- MIC (Escherichia coli): 10 µg/mL (≈ 27.3 µM)
Compound: Cc1cc(OCCN)c(C2CC3CCC2(C)C3(C)C)cc1Br (centres unmarked) [Example 2, 2-(2'-isobornyl-4'-bromo-5'-methylphenoxy) ethylamine]
- activation at 1 µg/mL [1, 2]: 23%
- activation at 3 µg/mL [1, 3]: 39%
- Coronary output, Duration in mins. ([1]; dose 1 μg/cm^3): > 15 min
- Coronary output, Duration in mins. ([1]; dose 3 μg/cm^3): > 15 min

- MIC (Staphylococcus aureus): 7.5 µg/mL (≈ 23.3 µM)
- MIC (Escherichia coli): 7.5 µg/mL (≈ 23.3 µM)
Compound: Cc1cc(OCCN)c(C2CC3CCC2(C)C3(C)C)cc1Cl (centres unmarked) [Example 10, 2-(2-isobornyl-4-chloro-5-methylphenoxy) ethylamine]
- activation at 1 µg/mL [1, 2]: 34%
- activation at 3 µg/mL [1, 3]: 60%
- Coronary output, Duration in mins. ([1]; dose 1 μg/cm^3): > 15 min
- Coronary output, Duration in mins. ([1]; dose 3 μg/cm^3): > 15 min

- MIC (Staphylococcus aureus): 7.5 µg/mL (≈ 21.3 µM)
- MIC (Escherichia coli): 5 µg/mL (≈ 14.2 µM)
Compound: CC1(C)C2CCC1(C)C(c1cc(Br)ccc1OCCN)C2 (centres unmarked) [Example 3, 2-(2'-isobornyl-4'-bromophenoxy) ethylamine]
- activation at 1 µg/mL [1, 2]: 4%
- activation at 3 µg/mL [1, 3]: 36%
- Coronary output, Duration in mins. ([1]; dose 1 μg/cm^3): 3 min
- Coronary output, Duration in mins. ([1]; dose 3 μg/cm^3): > 15 min

- MIC (Staphylococcus aureus): 20 µg/mL (≈ 65.9 µM)
- MIC (Escherichia coli): 7.5 µg/mL (≈ 24.7 µM)
Compound: CC1(C)C2CCC1(C)C(c1ccccc1OCC(O)CN)C2 (centres unmarked) [Example 8, 1-Amino 3-(2'-isobornylphenoxy) propan-2-ol]
- activation at 3 µg/mL [1, 3]: 24%
- activation at 10 µg/mL [1, 4]: 63%
- Coronary output, Duration in mins. ([1]; dose 3 μg/cm^3): 6 min
- Coronary output, Duration in mins. ([1]; dose 10 μg/cm^3): 12 min

- MIC (Staphylococcus aureus): 5 µg/mL (≈ 16.6 µM)
- MIC (Escherichia coli): 7.5 µg/mL (≈ 24.9 µM)
Compound: Cc1cc(OCCN)c(C2CC3CCC2(C)C3(C)C)cc1C (centres unmarked) [Example 1, 2-(2'-isobornyl-4',5'-dimethylphenoxy) ethylamine]
- activation at 3 µg/mL [1, 3]: 37%
- activation at 10 µg/mL [1, 4]: 55%
- Coronary output, Duration in mins. ([1]; dose 3 μg/cm^3): 5 min
- Coronary output, Duration in mins. ([1]; dose 10 μg/cm^3): 5 min
